Here are results for eleven compounds from publication PMC6630221, “Semi-Synthesis and Evaluation of Sargahydroquinoic Acid Derivatives as Potential Antimalarial Agents” (Medicines, 2019).

The test system of data set [1] is chloroquine-resistant Gambian FCR-3 strain of P. falciparum. Put plainly: Antiplasmodial tritiated hypoxanthine incorporation assay. In kind it is cell-based, Plasmodium falciparum. The conditions noted are these: for IC50: Plasmodium falciparum, FCR3, chloroquine-resistant FCR-3 strain, 0.5% parasitaemia, 1% haematocrit, triplicate; for antiplasmodial activity (in words): FCR-3 strain of P. falciparum; for Selectivity Index: ratio of cytotoxicity IC50 (MDA-MB-231) to antimalarial IC50 (FCR-3). The protocol: All compounds were tested in triplicate against the chloroquine-resistant Gambian FCR-3 strain of P. falciparum. The in vitro erythrocytic stage of the parasite was maintained using the method outlined by Trager and Jensen. The antimalarial activity of the compounds was determined using the tritiated hypoxanthine incorporation assay using a 0.5% parasitaemia and 1% haematocrit. All assays were carried out using untreated parasites and uninfected red blood cells as controls. The concentration that inhibited 50% parasite growth (IC50 value) was determined from the log sigmoid dose response curve using GraphPad Prism. Quinine was used as the reference antiplasmodial agent. The selectivity index for the compounds was determined from the ratio of cytotoxicity IC50 to antimalarial IC50.

The subject of data set [2] is MDA-MB-231 breast carcinoma cells. The experiment in a line: Cytotoxicity WST-1 assay. In kind it is cell-based. The conditions noted are these: MDA-MB-231 cells; for IC50: Homo sapiens, WST-1, triplicate. The protocol: All compounds were tested in triplicate against MDA-MB-231 breast carcinoma cells, which were purchased from the ATCC (Catalogue number HTB-26, Manassas, VA, USA). The cytotoxicity of the compounds was determined using the WST-1 assay method (Roche). The cells were treated with a range of concentrations of the test compounds or vehicle control (DMSO). Cells treated with DMSO were considered to represent 100% viability and the viability of cells at each dose was represented relative to this value. The concentration resulting in a decrease of cell viability to 50% was calculated from the linear portion of the dose response curve.
A general note: Formazan colour is commonly taken as a measure of viable cells.

The subject of data set [3] is Plasmodium falciparum (D10). The arrangement: method as in PMID 19227833. The conditions noted are these: chloroquine sensitive strain D10 of P. falciparum; ref [5]; cited from earlier work.
Setting [4] is: listed as sarganaphthoquinoic acid (10).

In the case of `C=C[C@H]1C[N@@]2CC[C@H]1C[C@H]2[C@H](O)c1ccnc2ccc(OC)cc12` [Quinine, reference compound], in data set [1], the IC50 (commonly the concentration that inhibits the measured activity by half) was 0.17 µM.

Consider `CC(C)=CCC/C(=C/CC/C(C)=C/CCc1ccc2c(c1)C(=O)C=C(C)C2=O)C(=O)O` [Sarganaphthoquinone (10), sarganaphthoquinoic acid], for which the figures for the “antiplasmodial activity (in words)” value in data set [1] and in data set [1] (setting [4]) were “most promising antiplasmodial activity” and “good antiplasmodial activity”, respectively. Further, the IC50 turned out to be 5.4 µM in data set [1] and 2410 µM in data set [2]. Besides, the “cytotoxicity (in words)” value in data set [2] was “low cytotoxicity”; in data set [2] (setting [4]), “almost non-toxic”.

`COC(=O)/C(=C\CC/C(C)=C/CC/C(C)=C/CC1=CC(=O)C=C(C)C1=O)CCC=C(C)C` [Sargaquinoic acid methyl ester (5), sargaquinoic acid methyl ester]: the values for the IC50 in data set [1] and in data set [2] were 8.2 µM and 70 µM, respectively. Also, the “Selectivity Index” value in data set [1] stood at 8.6.

With `CC(C)=CCC/C(=C/CC/C(C)=C/CC/C(C)=C/CC1=CC(=O)C=C(C)C1=O)C(=O)O` [Sargaquinoic acid (3), sargaquinoic acid], in data set [1], the “antiplasmodial activity (in words)” value is recorded as “most promising antiplasmodial activity”, the IC50 turned out to be 10.8 µM and the “Selectivity Index” value is on record as 60.9. For the same compound, in data set [2], inhibition was half-maximal at 658 µM (IC50) and the “cytotoxicity (in words)” value was “low cytotoxicity”. Moreover, the IC50 in data set [3] was 12 µM.

As for `CC(C)=CCC/C(C=O)=C\CC/C(C)=C/CC/C(C)=C/CC1=CC(=O)C=C(C)C1=O` [10E-sargaquinal (9), 10’E-sargaquinal], in data set [1], the “antiplasmodial activity (in words)” value is recorded as “decreased antiplasmodial activity”, the IC50 is 104 µM and the “Selectivity Index” value is recorded as 0.7. The same compound registered an IC50 in data set [2] of 69 µM. Further, in data set [3], the IC50 is 2 µM.

For the compound `CC(=O)Oc1cc(C)c(OC(C)=O)c(C/C=C(\C)CC/C=C(\C)CC/C=C(/CCC=C(C)C)C(=O)O)c1` [Sargahydroquinoic acid di-acetate (2), Diacetyl Sargahydroquinoic Acid], the IC50 is 84.3 µM in data set [1] and 286 µM in data set [2]. Moreover, the “Selectivity Index” value in data set [1] is 3.4.

Turning to `CC(C)=CCC/C(=C/CC/C(C)=C/CCC1(C)C=Cc2cc(O)cc(C)c2O1)CO` (stereo not drawn) [Sargachromendiol (8), sargachromendiol], the values for the IC50 in data set [1] and in data set [2] were 34.2 µM and 187 µM, respectively. Further, in data set [1], the “Selectivity Index” value is listed as 5.5.

Turning to `CC(C)=CCC/C(=C/CC/C(C)=C/CC/C(C)=C/Cc1cc(O)cc(C)c1O)C(=O)O` [Sargahydroquinoic acid (1), sargahydroquinoic acid], the IC50 in data set [1] was 38.6 µM; in data set [2] it was 70 µM; in data set [3], 15.2 µM. The “Selectivity Index” value in data set [1] stood at 1.8.

In the case of `CC(C)=CCC/C(C=O)=C/CC/C(C)=C/CC/C(C)=C/CC1=CC(=O)C=C(C)C1=O` [10Z-sargaquinal (4), 2’E,6’E,10’Z-sargaquinal], in data set [1], the “antiplasmodial activity (in words)” value is recorded as “decreased antiplasmodial activity”, the IC50 came out at 72.6 µM and the “Selectivity Index” value amounted to 2.9. Besides, in data set [2], inhibition was half-maximal at 211 µM (IC50).

Take `CC(C)=CCC/C(=C/CC/C(C)=C/CCC1(C)C=Cc2cc(O)cc(C)c2O1)C(=O)O` (stereo not drawn) [Sargachromenol (7), sargachromenol]: in data set [1], the 50% inhibitory concentration (IC50) was found to be 115 µM and the “Selectivity Index” value worked out at 0.5. In data set [2], this compound registered an IC50 of 56 µM.

Turning to `CC(C)=CCC/C(=C/CC/C(C)=C/CC/C(C)=C/CC1=CC(=O)C=C(C)C1=O)CO` [Sargaquinol (6), sargaquinol], in data set [1], the “antiplasmodial activity (in words)” value is on record as “decreased antiplasmodial activity”, the IC50 is 93.1 µM and the “Selectivity Index” value came out at 1.1. This compound also showed an IC50 in data set [2] of 99 µM.
